Inhibition data for 34 compounds are collected here from PubChem BioAssay AID743475 (The Scripps Research Institute Molecular Screening Center, 2014).

In general, inhibition refers to the change of the read-out against control, counted positive when it falls.

The subject of this test is OTUB2. Kind of test: late-stage follow-up, selectivity assay for CCHF vOTU protease inhibitor project, biochemical, fluorescence, assay provider (AID 743475). The following applies: recombinant OTUB2, fluorogenic ubiquitin substrate, stronger effect = higher value.

Each structure is given as a SMILES string. Calls of active or inactive are those of the source. How the calls were made is not given here.

Turning to `NS(=O)(=O)c1ccc(NC(=O)COC(=O)c2ccc([N+](=O)[O-])s2)cc1`, the inhibition (run 1, at 29.01 µM) was 37.5%.

For the compound `O=C(COC(=O)c1ccc([N+](=O)[O-])s1)Nc1ncc(C(F)(F)F)cc1Cl`, under “run 1, at 27.79 µM”, the inhibition was 42.3%.

With `COc1ccccc1NC(=O)COC(=O)c1ccc([N+](=O)[O-])s1`, under “run 1, at 35.07 µM”, the inhibition is 61.9%.

For the compound `Cc1c(Cl)cnc(NC(=O)COC(=O)c2ccc([N+](=O)[O-])s2)c1Cl`, for the setting “run 1, at 20.44 µM”, the inhibition is 49.9%.

Take `CCc1cc[n+](C2=C(NS(=O)(=O)c3cccs3)C(=O)c3ccccc3C2=O)cc1`: the inhibition (run 1, at 14.16 µM) was 54%.

With `Cc1ccc2c(c1C)-c1c(ccc(C)c1C)C(=O)C2=O`, the inhibition (run 1, at 18.9 µM) was 60.1%.

`Cn1nc(-c2ccccn2)nc2c(=O)n(C)c(=O)nc1-2`: the inhibition (run 1, at 1.16 µM) is 98%.

Take `Cc1ccc(NC2=CC(=O)C(=O)c3ccccc32)cc1`: the inhibition (run 1, at 12.24 µM) was 78.7%.

With `O=C1C=C(Nc2ccccc2)c2ccccc2C1=O`, the inhibition (run 1, at 15.55 µM) was 75.6%.

With `O=C(OCc1nnc(-c2ccccc2)o1)c1ccc([N+](=O)[O-])s1`, the inhibition (run 1, at 26.04 µM) is 46.9%.

Take `CN(C1=C(NC(=O)c2ccccc2)C(=O)c2ccccc2C1=O)C1CCS(=O)(=O)C1` (centres undefined): for the setting “run 2, at 19.2 µM”, the inhibition is 57.8%.

With `Cc1ccccc1-c1cc2c(nn1)-c1ccccc1C2=O`, the inhibition (run 2, at 4.46 µM) was 23.3%.

As to `O=c1[nH]c(Nc2ccccc2)cc2cc(Br)ccc12`, under “run 1, at 1.45 µM”, the inhibition is 57.8%.

`O=C(NC1=CC(=O)c2ccccc2C1=O)c1ccccc1`: the inhibition (run 1, at 12.37 µM) is 46.4%.

In the case of `O=C1Cc2ccccc2C(=O)N1Cc1ccccc1`, the inhibition (run 1, at 1.31 µM) is 68.4%.

As for `O=C(NC1=C(NC2CCS(=O)(=O)C2)C(=O)c2ccccc2C1=O)c1ccccc1` (centres undefined), the inhibition (run 1, at 14.2 µM) was 56.9%.

For `O=C1Cc2ccccc2C(=O)N1CCc1ccccc1`, the inhibition (run 2, at 3.02 µM) was 14.9% (inactive).

For the compound `CCOC(=O)N=Nc1c2ccccc2c2nc3no[nH]c3nc12`, the inhibition (run 1, at 7.75 µM) was 37.8%.

`NS(=O)(=O)c1ccc(NC2=CC(=O)C(=O)c3ccccc32)cc1`: where the note is “run 1, at 11.51 µM”, the inhibition was 78.7%.

As to `CC1COCC(C)N1C1=C(Cl)C(=O)c2ccccc2C1=O` (centres undefined), where the note is “run 1, at 14.67 µM”, the inhibition was 23.6%.

As to `Cc1ccc(N2C(=O)[C@@H]3[C@H](C2=O)C2c4ccccc4C=CN2[C@@H]3C(=O)c2ccco2)cc1` (some centres undefined), the inhibition (run 1, at 5.2 µM) is 55.4%.

In the case of `COC1=C(N)C(=O)c2nc(C)ccc2C1=O`, the inhibition (run 1, at 4.98 µM) was 67.6%.

For the compound `O=C(COC(=O)c1ccc([N+](=O)[O-])s1)NCc1ccc(F)cc1`, the inhibition (run 1, at 40.58 µM) is 39.9%.

As to `CC1(C)C=C2C(=NN(c3ccccc3)C(N)=C2C#N)CO1`, under “run 1, at 23.49 µM”, the inhibition is 78.2%.

For the compound `COc1ccc2noc3c2c1C(=O)c1ccccc1-3`, the inhibition (run 1, at 6.28 µM) was 170%.

Regarding `COc1cc(NC(=O)COC(=O)c2ccc([N+](=O)[O-])s2)cc(OC)c1OC`, the inhibition (run 1, at 21.72 µM) is 41.2%.

With `O=C(c1ccco1)[C@@H]1[C@@H]2C(=O)N(c3ccc(Br)cc3)C(=O)[C@@H]2C2c3ccccc3C=CN21` (some centres undefined), the inhibition (run 1, at 11.01 µM) was 91.8%.

`O=C1Cc2ccccc2C(=O)N1`: the inhibition (run 1, at 0.6 µM) is 67.3%.

On to `O=C(/C=C/c1ccc(O)cc1)c1ccc(NC2=C(N3CCCCC3)C(=O)c3ccccc3C2=O)cc1`, for which the inhibition (run 1, at 10.17 µM) was 30.7%.

On to `COC(CNC(=O)c1ccc2c3c(onc13)-c1ccccc1C2=O)OC`, for which, under “run 1, at 24.19 µM”, the inhibition is 58.5%.

On to `CCn1nc(/C=C/c2ccccc2)nc2c(=O)n(C)c(=O)nc1-2`, for which, under “run 1, at 0.49 µM”, the inhibition is 98.8%.

Take `CC1CCCC(NC(=O)COC(=O)c2ccc([N+](=O)[O-])s2)C1C` (centres undefined): the inhibition (run 1, at 31.32 µM) is 33.7%.

As for `COc1cc(Br)c(C(=O)c2nccc3cc(OC)c(OC)cc23)cc1OC`, for the setting “run 1, at 1.13 µM”, the inhibition was 17.2% (inactive).

On to `O=C(COC(=O)c1ccc([N+](=O)[O-])s1)Nc1ccc(F)cc1`, for which the inhibition (run 1, at 26.34 µM) was 40.3%.
